From patent publication US20220402916A1, “SMALL MOLECULE INHIBITORS OF KRAS G12C MUTANT” (Merck Sharp & Dohme Corp., priority 2019, published 2022)
Where two headings read alike, the source gives them in different places.

Columns and labels:
[1] = test system: NCI-H358 cells; test: Cellular phospho-ERK assay; assay type: cell-based; details: NCI-H358 cells, 2 hour incubation, ratio of p-Erk vs total Erk, read-out: IC50
In short: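 15,000 cells/well seeded overnight, then dose-response compound treatment for 2 h at 37 °C in RPMI medium. Lysed and read by AlphaLISA SureFire Ultra multiplex; p-ERK/total ERK ratio as readout, IC50 from 4-parameter logistic fit.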

[2] = biological target: T1, Biotinylated KRAS G12C protein (Homo sapiens, UniProt P01116, C118S/C51S/C80L/G12C); test: SOS-catalyzed nucleotide exchange assay; assay type: biochemical; details: apparent potency; preincubation time of 60 minutes prior to addition of SOS
T1 construct: 183 amino acids; biotin on K10
T1 sequence (P01116 with tags, fused parts or gaps isoform P01116-2 G12C/C51S/C80L/C118S): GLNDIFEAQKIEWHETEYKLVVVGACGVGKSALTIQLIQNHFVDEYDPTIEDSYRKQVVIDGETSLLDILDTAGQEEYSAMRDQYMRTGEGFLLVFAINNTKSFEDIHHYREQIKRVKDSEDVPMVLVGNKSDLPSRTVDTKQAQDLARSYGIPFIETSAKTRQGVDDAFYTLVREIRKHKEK

Row | SMILES | IC50 ([1]; Homo sapiens, NCI-H358, 2 h) | IC50 [2] | IC50 [1]
1 | C=CC(=O)N1CCN(c2cc(C(=O)N[C@@H](C)CN)nc3c2CCN(c2cccc4ccccc24)C3)C[C@@H]1CC#N [Compound 62, 4-((S)-4-acryloyl-3-(cyanomethyl)piperazin-1-yl)-N-((S)-1-aminopropan-2-yl)-7-(naphthalen-1-yl)-5,6,7,8-tetrahydro-1,7-naphthyridine-2-carboxamide] | 2410 nM | 51 nM | –
2 | C=CC(=O)N1CCN(c2cc(C(=O)NC3(CN4CCCCC4)CC3)nc3c2CCN(c2cccc4cccc(C)c24)C3)CC1 [Compound 25, 4-(4-acryloylpiperazin-1-yl)-7-(8-methylnaphthalen-1-yl)-N-(1-(piperidin-1-ylmethyl)cyclopropyl)-5,6,7,8-tetrahydro-1,7-naphthyridine-2-carboxamide] | 5640 nM | 74 nM | –
3 | C=CC(=O)N1CCN(c2cc(C(=O)NC(C)CN3CCC(F)(F)C3)nc3c2CCN(c2cccc4cccc(C)c24)C3)C[C@@H]1CC#N (single isomer, unassigned) [Compound 71, 4-((S)-4-acryloyl-3-(cyanomethyl)piperazin-1-yl)-N—((R or S)-1-(3,3-difluoropyrrolidin-1-yl)propan-2-yl)-7-(8-methylnaphthalen-1-yl)-5,6,7,8-tetrahydro-1,7-naphthyridine-2-carboxamide] | – | 32 nM | 5550 nM

Now from value to compound:

Row | IC50 ([1]; Homo sapiens, NCI-H358, 2 h) | IC50 [2] | IC50 [1] | SMILES
4 | 5470 nM | 56 nM | – | C=CC(=O)N1CCN(c2cc(C(=O)N[C@H]3CC[C@@H](NC)CC3)nc3c2CCN(c2cccc4cccc(C)c24)C3)C[C@@H]1CC#N [Compound 96, 4-((S)-4-acryloyl-3-(cyanomethyl)piperazin-1-yl)-N-(cis-4-(methylamino)cyclohexyl)-7-(8-methylnaphthalen-1-yl)-5,6,7,8-tetrahydro-1,7-naphthyridine-2-carboxamide]
5 | 1600 nM | 90 nM | – | C=CC(=O)N1CCN(c2cc(C(=O)N[C@H](C)CN(C)C)nc3c2CCN(c2c(Cl)c(C)cc4[nH]ncc24)C3)CC1 [Compound 83, (R)-4-(4-acryloylpiperazin-1-yl)-7-(5-chloro-6-methyl-1H-indazol-4-yl)-N-(1-(dimethylamino)propan-2-yl)-5,6,7,8-tetrahydro-1,7-naphthyridine-2-carboxamide]
6 | 2970 nM | 29 nM | – | C=CC(=O)N1CCN(c2cc(C(=O)NC[C@H]3CC(F)(F)CN3)nc3c2CCN(c2cccc4cccc(C)c24)C3)C[C@@H]1CC#N [Compound 81, 4-((S)-4-acryloyl-3-(cyanomethyl)piperazin-1-yl)-N-(((R)-4,4-difluoropyrrolidin-2-yl)methyl)-7-(8-methylnaphthalen-1-yl)-5,6,7,8-tetrahydro-1,7-naphthyridine-2-carboxamide]
7 | 809 nM | 5.4 nM | – | C=CC(=O)N1CCN(c2cc(C(=O)NC3(C)CCCNC3)nc3c2CCN(c2cccc4cccc(C)c24)C3)C[C@@H]1CC#N (mixture of isomers) [Compound 102, 4-((S)-4-acryloyl-3-(cyanomethyl)piperazin-1-yl)-7-(8-methylnaphthalen-1-yl)-N-((R)-3-methylpiperidin-3-yl)-5,6,7,8-tetrahydro-1,7-naphthyridine-2-carboxamide, as a mixture with 4-((S)-4-acryloyl-3-(cyanomethyl)piperazin-1-yl)-7-(8-methylnaphthalen-1-yl)-N-((S)-3-methylpiperidin-3-yl)-5,6,7,8-tetrahydro-1,7-naphthyridine-2-carboxamide]
